Assay results published in ChEMBL document CHEMBL5291721, “A preclinical secondary pharmacology resource illuminates target-adverse drug reaction associations of marketed drugs” (Nat Commun, 2023).

Experiments:
[1] = target: Neuronal acetylcholine receptor subunit alpha-4 (Homo sapiens, UniProt P43681)
[2] = target: T1, 5-hydroxytryptamine receptor 1A (Homo sapiens, UniProt P08908); assay type: functional, cell-based
T1 sequence (P08908 whole entry): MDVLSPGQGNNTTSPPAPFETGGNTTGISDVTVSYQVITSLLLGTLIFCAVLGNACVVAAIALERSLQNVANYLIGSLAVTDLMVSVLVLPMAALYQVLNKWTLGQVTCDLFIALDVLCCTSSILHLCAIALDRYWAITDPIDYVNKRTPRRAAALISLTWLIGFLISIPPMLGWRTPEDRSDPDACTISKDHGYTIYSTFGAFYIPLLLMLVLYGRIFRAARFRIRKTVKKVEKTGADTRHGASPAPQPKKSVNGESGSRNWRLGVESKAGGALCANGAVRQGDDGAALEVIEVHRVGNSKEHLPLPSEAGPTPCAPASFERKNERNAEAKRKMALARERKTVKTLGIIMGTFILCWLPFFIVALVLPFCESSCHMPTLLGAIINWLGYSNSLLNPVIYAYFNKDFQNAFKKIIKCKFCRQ

[3] = target: T1, 5-hydroxytryptamine receptor 1A; assay type: functional, cell-based; remark: listed apart in the source
[4] = target: T2, Muscarinic acetylcholine receptor M2 (Homo sapiens, UniProt P08172)
T2 sequence (P08172 whole entry): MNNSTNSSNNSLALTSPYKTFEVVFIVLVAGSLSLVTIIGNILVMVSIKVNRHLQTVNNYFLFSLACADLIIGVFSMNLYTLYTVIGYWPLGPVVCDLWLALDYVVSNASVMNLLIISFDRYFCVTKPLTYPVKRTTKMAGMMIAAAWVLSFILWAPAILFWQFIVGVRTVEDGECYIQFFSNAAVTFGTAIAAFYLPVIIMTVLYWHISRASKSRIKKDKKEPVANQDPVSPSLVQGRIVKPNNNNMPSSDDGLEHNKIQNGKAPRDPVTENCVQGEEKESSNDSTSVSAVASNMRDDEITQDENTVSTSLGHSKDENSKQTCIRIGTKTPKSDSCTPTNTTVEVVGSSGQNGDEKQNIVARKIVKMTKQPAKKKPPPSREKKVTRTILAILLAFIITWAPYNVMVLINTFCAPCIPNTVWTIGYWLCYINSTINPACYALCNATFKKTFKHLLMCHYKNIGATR

[5] = target: T3, Progesterone receptor (Homo sapiens, UniProt P06401)
T3 sequence (P06401 whole entry): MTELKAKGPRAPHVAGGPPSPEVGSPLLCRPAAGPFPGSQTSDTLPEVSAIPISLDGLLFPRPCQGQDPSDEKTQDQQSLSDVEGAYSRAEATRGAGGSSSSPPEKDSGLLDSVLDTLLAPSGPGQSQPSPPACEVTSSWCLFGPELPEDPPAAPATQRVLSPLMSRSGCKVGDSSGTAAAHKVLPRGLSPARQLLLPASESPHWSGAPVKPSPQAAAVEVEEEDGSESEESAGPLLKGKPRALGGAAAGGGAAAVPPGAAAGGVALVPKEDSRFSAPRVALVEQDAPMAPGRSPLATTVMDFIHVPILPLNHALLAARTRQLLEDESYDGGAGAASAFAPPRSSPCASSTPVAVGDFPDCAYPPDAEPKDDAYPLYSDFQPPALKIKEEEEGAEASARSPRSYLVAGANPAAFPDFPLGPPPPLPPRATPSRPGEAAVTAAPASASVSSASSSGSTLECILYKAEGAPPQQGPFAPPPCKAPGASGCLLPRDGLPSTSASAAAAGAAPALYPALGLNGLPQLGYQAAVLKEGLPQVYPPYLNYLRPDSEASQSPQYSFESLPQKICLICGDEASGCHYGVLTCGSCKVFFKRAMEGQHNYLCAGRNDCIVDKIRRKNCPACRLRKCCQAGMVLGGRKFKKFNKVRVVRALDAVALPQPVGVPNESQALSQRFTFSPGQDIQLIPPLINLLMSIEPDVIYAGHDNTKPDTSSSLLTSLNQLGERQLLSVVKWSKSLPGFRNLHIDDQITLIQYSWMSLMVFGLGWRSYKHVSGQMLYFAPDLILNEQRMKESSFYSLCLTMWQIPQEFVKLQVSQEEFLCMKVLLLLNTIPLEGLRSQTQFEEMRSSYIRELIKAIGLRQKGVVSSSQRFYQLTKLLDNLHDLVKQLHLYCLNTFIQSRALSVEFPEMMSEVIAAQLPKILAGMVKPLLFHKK
Further: assay procedure not described here.

Neuronal acetylcholine receptor subunit alpha-4, sequence (P43681 whole entry): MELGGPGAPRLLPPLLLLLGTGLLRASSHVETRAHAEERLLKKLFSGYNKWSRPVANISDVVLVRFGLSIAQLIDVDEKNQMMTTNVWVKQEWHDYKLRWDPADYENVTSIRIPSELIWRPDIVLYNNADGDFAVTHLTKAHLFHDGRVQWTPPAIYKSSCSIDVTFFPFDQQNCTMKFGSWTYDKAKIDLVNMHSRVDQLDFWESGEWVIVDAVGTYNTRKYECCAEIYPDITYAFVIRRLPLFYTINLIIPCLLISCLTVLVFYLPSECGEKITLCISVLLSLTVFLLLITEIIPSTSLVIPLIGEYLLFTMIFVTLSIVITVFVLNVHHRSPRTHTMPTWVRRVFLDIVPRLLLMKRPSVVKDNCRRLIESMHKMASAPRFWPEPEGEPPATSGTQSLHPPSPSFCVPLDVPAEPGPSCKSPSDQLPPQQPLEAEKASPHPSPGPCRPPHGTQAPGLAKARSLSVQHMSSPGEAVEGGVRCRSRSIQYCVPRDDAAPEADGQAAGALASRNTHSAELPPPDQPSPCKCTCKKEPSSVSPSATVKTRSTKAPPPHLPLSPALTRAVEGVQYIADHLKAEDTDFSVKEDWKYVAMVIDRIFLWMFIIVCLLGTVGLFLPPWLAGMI

Structure (SMILES)	AC50 [1]	AC50 [2]	AC50 [3]	AC50 [4]	AC50 [5]
CCN(CC)C(=O)C1(c2ccccc2)CC1CN (stereo not given)	> 30 µM	> 30 µM	> 30 µM		
CN(C)C(=O)Oc1cccc([N+](C)(C)C)c1 [NEOSTIGMINE]				> 30 µM	> 30 µM
